Laboratory results published in patent publication US20020192703A1, “Immunoassay reagents and methods for determination of LSD and LSD metabolites” (priority 1995, published 2002).

How the values were obtained:
[1] = tested on: monoclonal antibody 19A7; assay type: binding, mice; conditions: Concentration Added 0.5 ng/ml
Protocol: Cross-reactivity was tested by spiking various potential cross-reactants into human urine containing a preservative.

[2] = Urine time course after LSD administration, GC/MS; assay type: in vivo; conditions: human
Protocol: In this example, experiments were performed to better define the time course of excretion of LSD metabolites in urine, and the ability of various immunoassays to detect them.
Individuals were administered LSD, and urine samples were collected over a four-day period. The samples were assayed using the LSD enzyme-complementation immunoassay described in Examples 9 and 10 using monoclonal antibody 19A7. The samples were also measured using the DPC radioimmunoassay (“Coat-A-Count”® LSD assay, by Diagnostic Products Company) according to manufacturer's directions, and by GC/MS).
Results are shown in the following table in terms of LSD equivalents (translating the signal generated using a standard curve obtained with known concentrations of LSD).

[3] = tested on: central nervous system; conditions: hallucinations, distortions in sensory perception, mood changes; cited from earlier work
[4] = in man; calculated; cited from earlier work

Compound: CCN(CC)C(=O)[C@@H]1C=C2c3cccc4[nH]cc(c34)C[C@H]2N(C)C1 [LSD, lysergic acid diethylamide]
- % Cross-Reactivity ([1]; 100 × observed dose / concentration added): 100.00%
- Concentration Observed ([1]; in human urine): 0.5 ng/mL
- concentration at 4 h ([2]; urine sample JS U3, 4 hrs after LSD administration): 0.39 ng/mL
- concentration at 6 h ([2]; urine sample JS U4, 6 hrs after LSD administration): 0.37 ng/mL
- concentration at 8 h ([2]; urine sample JS U5, 8 hrs after LSD administration): 0.38 ng/mL
- concentration at 10 h ([2]; urine sample JS U6, 10 hrs after LSD administration): 0.64 ng/mL
- concentration at 12 h ([2]; urine sample JS U7, 12 hrs after LSD administration): 0.52 ng/mL
- concentration at 24 h ([2]; urine sample JS U8, 24 hrs after LSD administration): 0.34 ng/mL
- concentration at 36 h ([2]; urine sample JS U9, 36 hrs after LSD administration): 0.03 ng/mL
- concentration at 48 h ([2]; urine sample JS U10, 48 hrs after LSD administration): 0.01 ng/mL
- concentration at 60 h ([2]; urine sample JS U11, 60 hrs after LSD administration): 0 ng/mL
- concentration at 72 h ([2]; urine sample JS U12, 72 hrs after LSD administration): 0.02 ng/mL
- concentration at 84 h ([2]; urine sample JS U13, 84 hrs after LSD administration): 0 ng/mL
- concentration at 98 h ([2]; urine sample JS U14, 98 hrs after LSD administration): 0 ng/mL
- concentration at 2 h ([2]; urine sample SW U2, 2 hrs after LSD administration): 0.33 ng/mL
- concentration at 4 h ([2]; urine sample SW U3, 4 hrs after LSD administration): 0.54 ng/mL
- concentration at 8 h ([2]; urine sample SW U4, 8 hrs after LSD administration): 0.52 ng/mL
- concentration at 8 h ([2]; urine sample SW U5, 8 hrs after LSD administration): 0.71 ng/mL
- concentration at 10 h ([2]; urine sample SW U6, 10 hrs after LSD administration): 0.76 ng/mL
- concentration at 12 h ([2]; urine sample SW U7, 12 hrs after LSD administration): 1.77 ng/mL
- concentration at 24 h ([2]; urine sample SW U8, 24 hrs after LSD administration): 1.42 ng/mL
- concentration at 36 h ([2]; urine sample SW U9, 36 hrs after LSD administration): 0.11 ng/mL
- concentration at 48 h ([2]; urine sample SW U10, 48 hrs after LSD administration): 0.04 ng/mL
- concentration at 60 h ([2]; urine sample SW U11, 60 hrs after LSD administration): 0.02 ng/mL
- concentration at 72 h ([2]; urine sample SW U12, 72 hrs after LSD administration): 0 ng/mL
- concentration at 96 h ([2]; urine sample SW U14, 96 hrs after LSD administration): 0.01 ng/mL
- Oral doses that can cause central nervous system disturbances (as low as) [3]: 25 µg
- plasma half-life [4]: about 3 hours
